Tests used:
VCB protein = biological target: T1, VCB protein (Homo sapiens, UniProt P40337); test: Competitive fluorescence polarization (FP) binding assay, displacement of FAM-labeled HIF-1α peptide; conditions: for Kd: dissociation constant, determined by FP, mean ± S.E.M., back-calculated from IC50; for IC50: mean IC50 values obtained from the FP assay, read-out: IC50 ± S.E.M, FP assay
T1 construct: A plasmid containing pVHL54–213 with an N-terminal His6 tag; His6 (N, cleaved yes); made in house; host or cells: Escherichia coli BL21 (DE3)
Description: Binding of a ligand to the HIF binding site of VHL displaces a fluorescein-labeled, 19-mer HIF-1α oligopeptide, leading to a change in polarization of emitted light upon excitation of the competing fluorescent probe.
All components were dissolved from stock solutions using 100 mM Bis–Tris, 100 mM NaCl, 1 mM DTT, pH 7.0, to yield a final assay volume of 15 μL. DMSO was added as appropriate to ensure a final concentration of 2% (v/v). Control wells containing VCB and JC9 with no compound (zero displacement), or JC9, in the absence of protein (maximum displacement) were also included to allow for normalization. Percentage displacement values were obtained by normalization of controls and were plotted against log[compound]. The IC50 values were determined for each titration using non-linear regression analysis with Prism GraphPad (Table S1). Dissociation constants Kd for the compound–VCB interaction were back-calculated from the measured IC50 values by using a displacement binding model as described.[16],[64]

[1] = Log D7.4 measurement by chromatographic method; type: physicochemical; conditions: experimental distribution coefficient at pH 7.4; read-out: e log D7.4
Description: (§1) Both were experimentally obtained employing HPLC-based protocols.[39],[40] […] PPB values were determined in view of how they could impact future pharmacokinetic studies of compounds as VHL inhibitors, or once conjugated into bifunctional PROTACs, for which PPB can be a limiting factor.
The determination of the log D7.4 values was performed by a chromatographic method as described previously.[41],[62] […] Subsequently, the mean retention times (n = 2) of the analytes were taken to calculate their log D7.4 values.

human serum albumin = human serum albumin (Homo sapiens, UniProt P02768); test: PPB studies on HSA HPLC column; type: in vitro ADME; conditions: CHIRALPAK HSA HPLC column (human serum albumin); experimentally determined percentage of the compound bound to human serum albumin
Description: as §1
PPB was estimated by correlating the logarithmic retention times of the analytes on a […] HSA 50 × 3 mm, 5 μm column with the literature-known % PPB values (converted into log K values) of the following drugs: warfarin, ketoprofen, budesonide, nizatidine, indomethacin, acetylsalicylic acid, carbamazepine, piroxicam, nicardipine, and cimetidine.[63] Samples were dissolved in MeCN/DMSO 9:1 to achieve a final concentration of 0.5 mg/mL. The mobile phase A was 50 mM ammonium acetate adjusted to pH 7.4 with 10% NaOH, while mobile phase B was iPrOH. […] After injecting 3 μL of the sample, a linear gradient from 100% A to 30% iPrOH in 5.4 min was applied. From 5.4 to 18 min, 30% iPrOH was kept, followed by switching back to 100% A in 1.0 min and a re-equilibration time of 6 min.

| Kd (VCB protein) | IC50 (VCB protein) | chromatographic logD [1] | fraction unbound at 0.5 mg/mL (human serum albumin) | SMILES |
| --- | --- | --- | --- | --- |
| 1270 ± 150 nM | 6530 ± 428 nM | 1.9 | 0.14 | COc1cc(-c2scnc2C)c(OC)cc1CNC(=O)[C@@H]1C[C@@H](O)CN1C(=O)[C@@H](NC(=O)C1(C#N)CC1)C(C)(C)C [Compound 15, (2S,4R)-1-((S)-2-(1-Cyanocyclopropane-1-carboxamido)-3,3-dimethylbutanoyl)-N-(2,5-dimethoxy-4-(4-methylthiazol-5-yl)benzyl)-4-hydroxypyrrolidine-2-carboxamide] |
| 281 ± 46 nM | 1440 ± 198 nM | 2 | 0.12 | Cc1ncsc1-c1cc(F)c(CNC(=O)[C@@H]2C[C@@H](O)CN2C(=O)[C@@H](NC(=O)C2(C#N)CC2)C(C)(C)C)cc1F [Compound 16, (2S,4R)-1-((S)-2-(1-Cyanocyclopropane-1-carboxamido)-3,3-dimethylbutanoyl)-N-(2,5-difluoro-4-(4-methylthiazol-5-yl)benzyl)-4-hydroxypyrrolidine-2-carboxamide] |
| 883 ± 68 nM | 4560 ± 208 nM | 2.5 | 0.07 | Cc1ncsc1-c1cc(Cl)c(CNC(=O)[C@@H]2C[C@@H](O)CN2C(=O)[C@@H](NC(=O)C2(C#N)CC2)C(C)(C)C)cc1Cl [Compound 17, (2S,4R)-1-((S)-2-(1-Cyanocyclopropane-1-carboxamido)-3,3-dimethylbutanoyl)-N-(2,5-dichloro-4-(4-methylthiazol-5-yl)benzyl)-4-hydroxypyrrolidine-2-carboxamide] |
| 322 ± 38 nM | 1650 ± 100 nM | 2.3 | 0.09 | Cc1ncsc1-c1ccc(CNC(=O)[C@@H]2C[C@@H](O)CN2C(=O)[C@@H](NC(=O)C2(C#N)CC2)C(C)(C)C)c(C)c1C [Compound 18, (2S,4R)-1-((S)-2-(1-Cyanocyclopropane-1-carboxamido)-3,3-dimethylbutanoyl)-N-(2,3-dimethyl-4-(4-methylthiazol-5-yl)benzyl)-4-hydroxypyrrolidine-2-carboxamide] |
| 1450 ± 180 nM | 7450 ± 624 nM | 2.2 | 0.11 | Cc1ncsc1-c1ccc(CNC(=O)[C@@H]2C[C@@H](O)CN2C(=O)[C@@H](NC(=O)C2(C#N)CC2)C(C)(C)C)c(F)c1F [Compound 19, (2S,4R)-1-((S)-2-(1-Cyanocyclopropane-1-carboxamido)-3,3-dimethylbutanoyl)-N-(2,3-difluoro-4-(4-methylthiazol-5-yl)benzyl)-4-hydroxypyrrolidine-2-carboxamide] |
| 141 ± 8 nM | 727 ± 7 nM | 1.9 | 0.11 | Cc1ncsc1-c1ccc(CNC(=O)[C@@H]2C[C@@H](O)CN2C(=O)[C@@H](NC(=O)C2(C#N)CC2)C(C)(C)C)c(O)c1F [Compound 20, (2S,4R)-1-((S)-2-(1-Cyanocyclopropane-1-carboxamido)-3,3-dimethylbutanoyl)-N-(3-fluoro-2-hydroxy-4-(4-methylthiazol-5-yl)benzyl)-4-hydroxypyrrolidine-2-carboxamide] |
| 397 ± 70 nM | 2020 ± 271 nM | 2.3 | 0.07 | Cc1ncsc1-c1ccc(CNC(=O)[C@@H]2C[C@@H](O)CN2C(=O)[C@@H](NC(=O)C2(C#N)CC2)C(C)(C)C)c2ccccc12 [Compound 22, (2S,4R)-1-((S)-2-(1-Cyanocyclopropane-1-carboxamido)-3,3-dimethylbutanoyl)-4-hydroxy-N-((4-(4-methylthiazol-5-yl)naphthalen-1-yl)methyl)pyrrolidine-2-carboxamide] |
| 330 ± 93 nM | 1670 ± 375 nM | 1.7 | 0.12 | Cc1ncsc1-c1ccc(CNC(=O)[C@@H]2C[C@@H](O)CN2C(=O)[C@@H](NC(=O)C2(C#N)CC2)C(C)(C)C)c2ncccc12 [Compound 23, (2S,4R)-1-((S)-2-(1-Cyanocyclopropane-1-carboxamido)-3,3-dimethylbutanoyl)-4-hydroxy-N-((5-(4-methylthiazol-5-yl)quinolin-8-yl)methyl)pyrrolidine-2-carboxamide] |
| 86 ± 20 nM | 329 ± 51 nM | 2.3 | 0.12 | Cc1cc(-c2scnc2C)ccc1[C@H](C)NC(=O)[C@@H]1C[C@@H](O)CN1C(=O)[C@@H](NC(=O)C1(C#N)CC1)C(C)(C)C [Compound 24, (2S,4R)-1-((S)-2-(1-Cyanocyclopropane-1-carboxamido)-3,3-dimethylbutanoyl)-4-hydroxy-N-((S)-1-(2-methyl-4-(4-methylthiazol-5-yl)phenyl)ethyl)pyrrolidine-2-carboxamide] |
| 186 ± 40 nM | 718 ± 95 nM | 2.2 | 0.12 | Cc1ncsc1-c1ccc([C@H](C)NC(=O)[C@@H]2C[C@@H](O)CN2C(=O)[C@@H](NC(=O)C2(C#N)CC2)C(C)(C)C)cc1F [Compound 25, (2S,4R)-1-((S)-2-(1-Cyanocyclopropane-1-carboxamido)-3,3-dimethylbutanoyl)-N-((S)-1-(3-fluoro-4-(4-methylthiazol-5-yl)phenyl)ethyl)-4-hydroxypyrrolidine-2-carboxamide] |
| 80 ± 23 nM | 310 ± 65 nM | 2.3 | 0.1 | Cc1cc(-c2scnc2C)c(F)cc1CNC(=O)[C@@H]1C[C@@H](O)CN1C(=O)[C@@H](NC(=O)C1(F)CC1)C(C)(C)C [Compound 28, (2S,4R)-N-(5-Fluoro-2-methyl-4-(4-methylthiazol-5-yl)benzyl)-1-((S)-2-(1-fluorocyclopropane-1-carboxamido)-3,3-dimethylbutanoyl)-4-hydroxypyrrolidine-2-carboxamide] |
| 3920 ± 420 nM | 15900 ± 934 nM | 2.2 | 0.1 | Cc1ncsc1-c1ccc2c(c1)CC[C@@H]2NC(=O)[C@@H]1C[C@@H](O)CN1C(=O)[C@@H](NC(=O)C1(C#N)CC1)C(C)(C)C [Compound 34, (2S,4R)-1-((S)-2-(1-Cyanocyclopropane-1-carboxamido)-3,3-dimethylbutanoyl)-4-hydroxy-N-((S)-5-(4-methylthiazol-5-yl)-2,3-dihydro-1H-inden-1-yl)pyrrolidine-2-carboxamide] |
| 4040 ± 530 nM | 16600 ± 2130 nM | 2.3 | 0.1 | Cc1ncsc1-c1cc2c(cc1F)[C@@H](NC(=O)[C@@H]1C[C@@H](O)CN1C(=O)[C@@H](NC(=O)C1(C#N)CC1)C(C)(C)C)CC2 [Compound 35, (2S,4R)-1-((S)-2-(1-Cyanocyclopropane-1-carboxamido)-3,3-dimethylbutanoyl)-N-((S)-6-fluoro-5-(4-methylthiazol-5-yl)-2,3-dihydro-1H-inden-1-yl)-4-hydroxypyrrolidine-2-carboxamide] |
| 1040 ± 240 nM | 4400 ± 1060 nM | 2.6 | 0.08 | Cc1ncsc1-c1cc2c(cc1F)[C@@H](NC(=O)[C@@H]1C[C@@H](O)CN1C(=O)[C@@H](NC(=O)C1(F)CC1)C(C)(C)C)CCC2 [Compound 37, (2S,4R)-N-((S)-7-Fluoro-6-(4-methylthiazol-5-yl)-1,2,3,4-tetrahydronaphthalen-1-yl)-1-((S)-2-(1-fluorocyclopropane-1-carboxamido)-3,3-dimethylbutanoyl)-4-hydroxypyrrolidine-2-carboxamide] |

Reference: publication PMC10544018 (Journal of Medicinal Chemistry, 2023)
